Reference: patent US8192962B2, “Processes for detecting toxic substances” (Daikin Industries, Ltd., priority 2001, dated 2012)

System: Genes belonging to other category
Experiment: DNA chip mRNA expression in yeast, genes belonging to other category (Table 9)
Assay type: cell-based, Saccharomyces cerevisiae S288C
How it was run: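 Ratios compare mRNA levels in stressed and control S. cerevisiae. Each toxicant was applied for two hours to log-phase cultures at 25° C. at a sub-lethal, growth-inhibiting level; fluorescent cDNA (Cy3- or Cy5-dUTP) was hybridized to a genome-wide yeast chip for over 12 h at 65° C.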

[Cl][Hg][Cl] [(3), HgCl2]
The level of expressed mRNA in the presence of chemical substance/The level of expressed mRNA in the absence of chemical substance (yeast gene YAR010C): 1.2 | The level of expressed mRNA in the presence of chemical substance/The level of expressed mRNA in the absence of chemical substance (yeast gene YBL005W-A): 0.5 | The level of expressed mRNA in the presence of chemical substance/The level of expressed mRNA in the absence of chemical substance (yeast gene YBL041W): 0.9 | The level of expressed mRNA in the presence of chemical substance/The level of expressed mRNA in the absence of chemical substance (yeast gene YBL043W): 1.1 | The level of expressed mRNA in the presence of chemical substance/The level of expressed mRNA in the absence of chemical substance (yeast gene YBL078C): 1.3 | The level of expressed mRNA in the presence of chemical substance/The level of expressed mRNA in the absence of chemical substance (yeast gene YBR214W): 5.7 | The level of expressed mRNA in the presence of chemical substance/The level of expressed mRNA in the absence of chemical substance (yeast gene YCL020W): 0.5 | The level of expressed mRNA in the presence of chemical substance/The level of expressed mRNA in the absence of chemical substance (yeast gene YCL027W): 1.0 | The level of expressed mRNA in the presence of chemical substance/The level of expressed mRNA in the absence of chemical substance (yeast gene YCR004C): 12.0 | The level of expressed mRNA in the presence of chemical substance/The level of expressed mRNA in the absence of chemical substance (yeast gene YCR071C): 0.9 | The level of expressed mRNA in the presence of chemical substance/The level of expressed mRNA in the absence of chemical substance (yeast gene YCR088W): 1.2 | The level of expressed mRNA in the presence of chemical substance/The level of expressed mRNA in the absence of chemical substance (yeast gene YDL008W): 1.0 | The level of expressed mRNA in the presence of chemical substance/The level of expressed mRNA in the absence of chemical substance (yeast gene YDL238C): 1.1 | The level of expressed mRNA in the presence of chemical substance/The level of expressed mRNA in the absence of chemical substance (yeast gene YDR055W): 2.2 | The level of expressed mRNA in the presence of chemical substance/The level of expressed mRNA in the absence of chemical substance (yeast gene YDR084C): 1.5 | The level of expressed mRNA in the presence of chemical substance/The level of expressed mRNA in the absence of chemical substance (yeast gene YDR085C): 1.6 | The level of expressed mRNA in the presence of chemical substance/The level of expressed mRNA in the absence of chemical substance (yeast gene YDR104C): 1.2 | The level of expressed mRNA in the presence of chemical substance/The level of expressed mRNA in the absence of chemical substance (yeast gene YDR115W): 0.6 | The level of expressed mRNA in the presence of chemical substance/The level of expressed mRNA in the absence of chemical substance (yeast gene YDR259C): 0.4 | The level of expressed mRNA in the presence of chemical substance/The level of expressed mRNA in the absence of chemical substance (yeast gene YDR315C): 1.0 | The level of expressed mRNA in the presence of chemical substance/The level of expressed mRNA in the absence of chemical substance (yeast gene YDR358W): 0.7 | The level of expressed mRNA in the presence of chemical substance/The level of expressed mRNA in the absence of chemical substance (yeast gene YDR388W): 1.2 | The level of expressed mRNA in the presence of chemical substance/The level of expressed mRNA in the absence of chemical substance (yeast gene YDR432W): 1.0 | The level of expressed mRNA in the presence of chemical substance/The level of expressed mRNA in the absence of chemical substance (yeast gene YDR481C): 1.3 | The level of expressed mRNA in the presence of chemical substance/The level of expressed mRNA in the absence of chemical substance (yeast gene YDR510W): 1.5 | The level of expressed mRNA in the presence of chemical substance/The level of expressed mRNA in the absence of chemical substance (yeast gene YEL042W): 1.7 | The level of expressed mRNA in the presence of chemical substance/The level of expressed mRNA in the absence of chemical substance (yeast gene YEL066W): 1.5 | The level of expressed mRNA in the presence of chemical substance/The level of expressed mRNA in the absence of chemical substance (yeast gene YER039C): 1.0 | The level of expressed mRNA in the presence of chemical substance/The level of expressed mRNA in the absence of chemical substance (yeast gene YER107C): 1.0 | The level of expressed mRNA in the presence of chemical substance/The level of expressed mRNA in the absence of chemical substance (yeast gene YER130C): 0.5 | The level of expressed mRNA in the presence of chemical substance/The level of expressed mRNA in the absence of chemical substance (yeast gene YFL022C): 1.5 | The level of expressed mRNA in the presence of chemical substance/The level of expressed mRNA in the absence of chemical substance (yeast gene YFL028C): 0.7 | The level of expressed mRNA in the presence of chemical substance/The level of expressed mRNA in the absence of chemical substance (yeast gene YFL043C): 0.6 | The level of expressed mRNA in the presence of chemical substance/The level of expressed mRNA in the absence of chemical substance (yeast gene YGL158W): 1.9 | The level of expressed mRNA in the presence of chemical substance/The level of expressed mRNA in the absence of chemical substance (yeast gene YGL229C): 0.9 | The level of expressed mRNA in the presence of chemical substance/The level of expressed mRNA in the absence of chemical substance (yeast gene YGR136W): 1.3 | The level of expressed mRNA in the presence of chemical substance/The level of expressed mRNA in the absence of chemical substance (yeast gene YGR189C): 1.5 | The level of expressed mRNA in the presence of chemical substance/The level of expressed mRNA in the absence of chemical substance (yeast gene YGR213C): 1.0 | The level of expressed mRNA in the presence of chemical substance/The level of expressed mRNA in the absence of chemical substance (yeast gene YGR257C): 0.9 | The level of expressed mRNA in the presence of chemical substance/The level of expressed mRNA in the absence of chemical substance (yeast gene YHR004C): 0.8 | The level of expressed mRNA in the presence of chemical substance/The level of expressed mRNA in the absence of chemical substance (yeast gene YHR071W): 0.6 | The level of expressed mRNA in the presence of chemical substance/The level of expressed mRNA in the absence of chemical substance (yeast gene YHR139C): 6.8 | The level of expressed mRNA in the presence of chemical substance/The level of expressed mRNA in the absence of chemical substance (yeast gene YHR142W): 2.1 | The level of expressed mRNA in the presence of chemical substance/The level of expressed mRNA in the absence of chemical substance (yeast gene YIL123W): 1.2 | The level of expressed mRNA in the presence of chemical substance/The level of expressed mRNA in the absence of chemical substance (yeast gene YIL140W): 1.5 | The level of expressed mRNA in the presence of chemical substance/The level of expressed mRNA in the absence of chemical substance (yeast gene YJL073W): 2.5 | The level of expressed mRNA in the presence of chemical substance/The level of expressed mRNA in the absence of chemical substance (yeast gene YJL089W): 1.0 | The level of expressed mRNA in the presence of chemical substance/The level of expressed mRNA in the absence of chemical substance (yeast gene YJL116C): 1.3 | The level of expressed mRNA in the presence of chemical substance/The level of expressed mRNA in the absence of chemical substance (yeast gene YJR004C): 3.4 | The level of expressed mRNA in the presence of chemical substance/The level of expressed mRNA in the absence of chemical substance (yeast gene YJR086W): 0.8
